Assay [1] deals with Nucleic Acid. The assay is described as follows: Binding affinity to human single-strand oligonucleotide Pu39 transfected in human HL60 cells assessed as Bcl-2 transcriptional activation at 0.4 uM after 48 hrs by luciferase reporter gene assay relative to untreated Pu39-construct control. Particulars: HL-60. Format: cell-based.
Assay [2] deals with Nucleic Acid. The assay is described as follows: Binding affinity to single-strand oligonucleotide MutPu39 assessed as formation of G-quadruplex complex after 3 mins by PCR stop assay. In kind it is nucleic-acid assay.
For assay [3], the system named is Nucleic Acid. The experiment in a line: Stabilization of single-strand oligonucleotide MidG4 assessed as melting temperature by FRET assay. In kind it is nucleic-acid assay.
Assay [4] relates to HL-60. The experiment in a line: Antiproliferative activity against human HL60 cells assessed as viable cells at 0.2 uM after 4 days by trypan blue exclusion assay. Format: functional. The note with it: HL-60, 96 h, read-out: Activity.
The subject of assay [5] is HL-60. The experiment in a line: Induction of apoptosis in human HL60 cells assessed as cleavage of 35 kDa procaspase-3 at 0.02 to 0.2 uM after 4 days by Western blot analysis. In kind it is functional, cell-based. A general note: A western blot detects proteins with antibodies after separation by electrophoresis.
The test system of assay [6] is HL-60. The assay is described as follows: Cell cycle arrest in human HL60 cells assessed as accumulation at sub-G1 phase at 0.05 uM after 4 days by propidium iodide staining-based flow cytometry. In kind it is functional. For orientation: Flow cytometry measures light scatter and fluorescence of single cells or particles in a stream.
Assay [7] concerns HL-60. The experiment in a line: Downregulation of Bcl-2 protein expression in human HL60 cells at 0.02 to 0.2 uM after 4 days by Western blot analysis. Format: functional, cell-based.
Assay [8] addresses Nucleic Acid. The experiment in a line: Binding affinity to Bcl-2 promoter quadruplex DNA by surface plasmon resonance assay. In kind it is nucleic-acid assay.
Assay [9] deals with HL-60. The experiment in a line: Downregulation of Bcl-2 mRNA expression in human HL60 cells by RT-PCR analysis. In kind it is functional, cell-based.
For assay [10], the system named is HL-60. The experiment in a line: Downregulation of Bcl-2 mRNA expression in human HL60 cells at 0.2 uM by RT-PCR analysis. In kind it is functional.
The target of assay [11] is Nucleic Acid. The assay is described as follows: Binding affinity to single-strand oligonucleotide Pu39 assessed as formation of G-quadruplex complex after 3 mins by PCR stop assay. In kind it is nucleic-acid assay.
The subject of assay [12] is HL-60. The assay is described as follows: Induction of apoptosis in human HL60 cells assessed as PARP cleavage at 0.2 uM after 4 days by Western blot analysis. In kind it is functional, cell-based.
Assay [13] relates to Nucleic Acid. The experiment in a line: Binding affinity to human single-strand oligonucleotide MutPu39 transfected in human HL60 cells assessed as Bcl-2 transcriptional activation at 0.4 uM after 48 hrs by luciferase reporter gene assay relative to untreated MutPu39-construct control. Format: cell-based. The note with it: HL-60. (In general: In a reporter assay the amount or activity of a reporter protein is the signal.)

Assay [14] concerns Nucleic Acid. The assay is described as follows: Binding affinity to human single-strand oligonucleotide Pu39 transfected in human HL60 cells assessed as reduction of Bcl-2 transcriptional activation at 0.4 uM after 48 hrs by luciferase reporter gene assay. Particulars: HL-60. In kind it is cell-based.
Assay [15] has as its system HL-60. The assay is described as follows: Induction of apoptosis in human HL60 cells assessed as cleavage of 17 kDa procaspase-3 at 0.02 to 0.2 uM after 4 days by Western blot analysis. Format: functional, cell-based.
For assay [16], the system named is HL-60. The experiment in a line: Cell cycle arrest in human HL60 cells assessed as accumulation at sub-G1 phase at 0.2 uM after 4 days by propidium iodide staining-based flow cytometry. In kind it is functional.
For assay [17], the system named is Nucleic Acid. The experiment in a line: Binding affinity to human single-strand oligonucleotide MutPu39 transfected in human HL60 cells assessed as Bcl-2 transcriptional activation at 0.4 uM after 48 hrs by luciferase reporter gene assay relative to untreated Pu39-construct control. In kind it is cell-based. Particulars: HL-60.
The test system of assay [18] is Nucleic Acid. The experiment in a line: Binding affinity to human single-strand oligonucleotide MutPu39 transfected in human HL60 cells assessed as reduction of Bcl-2 transcriptional activation at 0.4 uM after 48 hrs by luciferase reporter gene assay. Format: cell-based. Particulars: HL-60.
The test system of assay [19] is HL-60. The assay is described as follows: Cell cycle arrest in human HL60 cells assessed as accumulation at sub-G1 phase at 0.1 uM after 4 days by propidium iodide staining-based flow cytometry. Format: functional.
Assay [20] deals with Nucleic Acid. The assay is described as follows: Binding affinity to Bcl-2 promoter duplex DNA by surface plasmon resonance assay. Format: nucleic-acid assay.
Assay [21] deals with HL-60. The assay is described as follows: Antiproliferative activity against human HL60 cells at 0.02 to 0.2 uM after 4 days by trypan blue exclusion assay. In kind it is functional, cell-based.
For assay [22], the system named is HL-60. The experiment in a line: Induction of apoptosis in human HL60 cells assessed as PARP cleavage at 1 uM after 4 days by Western blot analysis. In kind it is functional, cell-based.
Assay [23] relates to HL-60. The experiment in a line: Induction of apoptosis in human HL60 cells assessed as cleavage of 35 kDa procaspase-3 at 0.1 to 1 uM after 4 days by Western blot analysis. In kind it is functional, cell-based.
The subject of assay [24] is HL-60. The experiment in a line: Downregulation of Bcl-2 protein expression in human HL60 cells at 0.1 to 1 uM after 4 days by Western blot analysis. In kind it is functional, cell-based.
Assay [25] relates to HL-60. The experiment in a line: Antiproliferative activity against human HL60 cells at 0.1 to 1 uM after 4 days by trypan blue exclusion assay. In kind it is functional, cell-based.
For assay [26], the system named is HL-60. The experiment in a line: Antiproliferative activity against human HL60 cells assessed as viable cells at 1 uM after 4 days by trypan blue exclusion assay. Format: functional. Particulars: HL-60, 96 h, read-out: Activity.
For assay [27], the system named is HL-60. The experiment in a line: Downregulation of Bcl-2 mRNA expression in human HL60 cells at 0.8 uM by RT-PCR analysis. Format: functional.
For assay [28], the system named is HL-60. The assay is described as follows: Cell cycle arrest in human HL60 cells assessed as accumulation at sub-G1 phase at 1 uM after 4 days by propidium iodide staining-based flow cytometry. Format: functional.
Assay [29] has as its system Nucleic Acid. The experiment in a line: Selectivity ratio of Kd for Bcl-2 promoter duplex DNA to Kd for Bcl-2 promoter quadruplex DNA. In kind it is nucleic-acid assay.
For assay [30], the system named is HL-60. The experiment in a line: Induction of apoptosis in human HL60 cells assessed as cleavage of 17 kDa procaspase-3 at 0.1 to 1 uM after 4 days by Western blot analysis. In kind it is functional, cell-based.
Assay [31] concerns HL-60. The assay is described as follows: Cell cycle arrest in human HL60 cells assessed as accumulation at sub-G1 phase at 0.5 uM after 4 days by propidium iodide staining-based flow cytometry. Format: functional.

Data on 3 compounds can be found in ChEMBL document CHEMBL1158594, “Turning off transcription of the bcl-2 gene by stabilizing the bcl-2 promoter quadruplex with quindoline derivatives” (J Med Chem, 2010).

As usually defined, the IC50 is the concentration needed to halve the response being measured. Broadly, the Kd is the constant that tells how readily two partners part at equilibrium. The low end stands for higher affinity, the high end for lower affinity. Broadly, the inhibition is the relative decrease from the control value, in per cent.

Calls of active or inactive are those of the source. The calls are words filed in the database; no cut-off is given here.

Take `CN(C)CCCNc1c2ccccc2[n+](C)c2c1[nH]c1ccc(F)cc12.[I-]`: the Activity in the assay with Nucleic Acid [1] is 51.4%; with HL-60 [6], 5%; in the assay with HL-60 [9], “Dose-dependent effect”; in the assay on HL-60 [10], 50%; with Nucleic Acid [13], 74.6%; in the assay on HL-60 [16] it was 3.5%. The Activity with Nucleic Acid [17] turned out to be 132%; in the assay with HL-60 [19] it was 23.8%. Besides, the IC50 came out at 19700 nM on Nucleic Acid [2] and 1110 nM on Nucleic Acid [11]. In the assay on Nucleic Acid [3], the Tm amounted to 76.9 °C. Also, in the assay on HL-60 [4], the viability at 0.2 µM is below 25%. In addition, the result with HL-60 [5], with HL-60 [7], in the assay on HL-60 [12] and with HL-60 [21] was Active. The Kd on Nucleic Acid [8] was determined as 31.8 nM; on Nucleic Acid [20], 269 nM. Also, the inhibition was 50% in the assay with Nucleic Acid [14] and 25% with Nucleic Acid [18]. In addition, the result in the assay with HL-60 [15] was inactive.
Take `CN(C)CCCNc1c2ccccc2nc2c1[nH]c1ccc(F)cc12`: the outcome in the assay on HL-60 [22], in the assay with HL-60 [23], with HL-60 [24] and in the assay with HL-60 [25] was Active. The Activity was 70.5% with Nucleic Acid [1]; “Dose-dependent effect” in the assay with HL-60 [9]; 50% in the assay with HL-60 [27]; 22.3% in the assay with HL-60 [28]; 88.3% in the assay with Nucleic Acid [13]; 3% in the assay on HL-60 [16]. Besides, the Activity in the assay with Nucleic Acid [17] turned out to be 156%; in the assay on HL-60 [31] it was 6.1%. For the same compound, the figures for the 50% inhibitory concentration (IC50) on Nucleic Acid [2] and at Nucleic Acid [11] were above 100000 nM and 74400 nM, respectively. In the assay on Nucleic Acid [3], the Tm stood at 65.1 °C. Also, the Kd was 167 nM at Nucleic Acid [8] and 482 nM at Nucleic Acid [20]. The viability at 1 µM in the assay on HL-60 [26] is below 25%. Further, in the assay on Nucleic Acid [29], the Selectivity ratio came out at 2.9. In addition, the result in the assay on HL-60 [30] was inactive. Besides, the values for the inhibition in the assay on Nucleic Acid [14] and in the assay on Nucleic Acid [18] were 30% and 12%, respectively.
In the case of `OCCNc1c2ccccc2nc2c1[nH]c1ccccc12`, the Activity amounted to 84.4% in the assay with Nucleic Acid [1], 92.6% in the assay on Nucleic Acid [13] and 163% in the assay on Nucleic Acid [17]. Further, the IC50 on Nucleic Acid [2] and on Nucleic Acid [11] was above 100000 nM each time. For the same compound, the Tm with Nucleic Acid [3] is 51.5 °C. In addition, the Kd was 1500 nM at Nucleic Acid [8] and 3380 nM at Nucleic Acid [20]. In addition, the Selectivity ratio in the assay with Nucleic Acid [29] turned out to be 2.3.
